This experiment has as its target T1, human GnRH receptor1 (GnRHR1) (Homo sapiens, UniProt P30968).
T1 construct: expressed in transfected cells
T1 sequence (P30968 1-328): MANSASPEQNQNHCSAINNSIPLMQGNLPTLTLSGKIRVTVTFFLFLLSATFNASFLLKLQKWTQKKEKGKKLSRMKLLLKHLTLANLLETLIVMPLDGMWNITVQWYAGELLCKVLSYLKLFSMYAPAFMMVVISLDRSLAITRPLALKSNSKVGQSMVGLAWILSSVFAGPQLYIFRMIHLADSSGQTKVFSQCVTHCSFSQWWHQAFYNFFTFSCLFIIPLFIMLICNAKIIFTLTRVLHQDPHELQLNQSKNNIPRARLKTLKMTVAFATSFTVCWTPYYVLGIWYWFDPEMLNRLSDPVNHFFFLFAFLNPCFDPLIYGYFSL
Nature of the experiment: Assay of inhibitory effect for the change of calcium levels in GnRH-stimulated cells (hGnRHR1#1 HEK293 cells, FLIPR Calcium Assay Kit). The settings on record: drug concentration at which 50% GnRH-stimulated intracellular calcium flux was inhibited, 10 nM GnRH. The class given is cell-based. The source says: 1) Cloning and Construction of the Vector Expressing Human GnRH Receptor1 (GnRHR1)
Using cDNA derived from human pituitary (BECTON DICKINSON) as a template, the DNA fragment coding 45 to 1115 bp of human GnRHR1 (Accession No. L03380), which was reported by Kakar et al., was amplified by PCR method and inserted into the multi-cloning site of pcDNA3.1(+) (Invitrogen). The DNA sequence inserted was perfectly matched to the previously reported sequence.
2) Establishment of Cell Line Stably Expressing Human GnRH Receptor1 HEK293 Cells
The expression vector of human GnRHR1 gene, was digested by XhoI into a linear DNA. The linear DNA was transfected into HEK293 cells by means of lipofection (Lipofectamine-2000: Invitrogen). Neomycin resistant cell lines were selected by culture in the medium containing G418 (Invitrogen) at 1 mg/mL, and then the change of calcium levels in GnRH-stimulated cells was measured by the method described below.
3) Assay of Inhibitory Effect for the Change of Calcium Levels in GnRH-Stimulated Cells
Antagonizing effect of compounds for human GnRHR1 was evaluated by depression of calcium levels in GnRH-stimulated cells. hGnRHR1#1 cells were seeded into a 96-well culture plate at a density of 1.5×10^5 cells/well and cultured for a day. After removing the culture medium, cells were washed with 200 μL per well of the washing buffer (Hanks' Balanced Salt Solutions, 20 mM N-2-hydroxyethylpiperazine-N′-2-ethanesulfonic acid, 1.3 mM calcium chloride, 0.5 mM magnesium chloride, 0.4 mM magnesium sulfate). One hundred μL of the Ca^2+ sensitive dye solution (FLIPR Calcium Assay Kit, Molecular Devices) was added to the well, and the cells were incubated for 1 hour at 37° C. in 5% CO2 incubator. Then, intracellular calcium levels were determined under the following condition by using FLEX STATION (Molecular Devices). In the equipment, which was warmed to 37° C., 50 μL of test compound diluted with the measurement buffer (the washing buffer with 0.1% Albumin bovine serum) was added to the well. After 1 minute, 50 μL of 10 nM GnRH was added to the well. The drug concentration, at which 50% GnRH-stimulated intracellular calcium flux was inhibited (IC50 value), was calculated using logit plot (Table 106).
(A change in cytosolic calcium serves as a functional read-out for many receptors and channels.)

Consider `CC(C)(c1ccccc1)S(=O)(=O)c1ccc(Cl)c(-n2c(=O)[nH]c3ccc(C(=O)O)nc32)c1` [Example 35], for which the IC50 worked out at 193 nM.

As to `COc1cc(Cl)c(-n2c(=O)[nH]c3c(OC)ncnc32)cc1OCc1c(OC)ccc(F)c1F` [Example 39], the IC50 is 27 nM. To `COc1ccc(F)c(F)c1CN(C(C)=O)c1ccc(Cl)c(-n2c(=O)[nH]c3c(C)cc(C(=O)O)nc32)c1` [Example 81] belongs 32 nM. To `Cc1cc(C(=O)O)nc2c1[nH]c(=O)n2-c1cc(S(=O)(=O)N2CCCCc3ccccc32)ccc1F` [Example 93] belongs 20 nM; to `COc1cc(F)c(-n2c(=O)[nH]c3c(C)cc(C(=O)O)nc32)cc1SC(C)(C)c1ccccc1Cl` [Example 109], 36 nM. Turning to `COc1cccc(F)c1C(C)(C)S(=O)(=O)c1ccc(Cl)c(-n2c(=O)[nH]c3c(C)cc(C(=O)O)nc32)c1` [Example 128], the IC50 amounted to 24 nM. `Cc1cc(CO)nc2c1[nH]c(=O)n2-c1cc(S(=O)(=O)N2CCCCc3ccccc32)ccc1Cl` [Example 152, 3-[2-Chloro-5-(2,3,4,5-tetrahydro-1H-1-benzoazepin-1-ylsulfonyl)phenyl]-5-hydroxymethyl-7-methyl-1,3-dihydro-2H-imidazo[4,5-b]pyridin-2-one]: the IC50 amounted to 32 nM. The value for `Cc1cc(/C(N)=N/O)nc2c1[nH]c(=O)n2-c1cc(S(=O)(=O)N2CCCCc3ccccc32)ccc1Cl` [Example 160, 3-[2-Chloro-5-(2,3,4,5-tetrahydro-1H-1-benzoazepin-1-ylsulfonyl)phenyl]-5-hydroxycarbamimidoyl-7-methyl-1,3-dihydro-2H-imidazo[4,5-b]pyridin-2-one] was 99 nM; that for `COc1ccccc1N(C)S(=O)(=O)c1ccc(Cl)c(-n2c(=O)[nH]c3c(OC)ncnc32)c1` [Example 199] was 46 nM. The value for `COc1cccc(F)c1COc1cc(-n2c(=O)[nH]c3c(OC)nc(CF)nc32)c(Cl)cc1OCCO` [Example 251] was 54 nM; that for `COc1ncnc2c1[nH]c(=O)n2-c1cc(OCc2c(OCCNC(C)=O)ccc(F)c2F)ccc1Cl` [Example 262] was 62 nM. As to `COc1cccc(F)c1COc1cc(-n2c(=O)[nH]c3c(OC)nc(CO)nc32)c(Cl)cc1OCC(=O)O` [Example 274], the IC50 was found to be 15 nM. Regarding `COc1cc(Cl)c(-n2c(=O)[nH]c3c(OC)nc(CCO)nc32)cc1OCc1c(F)cccc1OC` [Example 314, 9-[2-Chloro-5-(2-fluoro-6-methoxybenzyloxy)-4-methoxyphenyl]-2-(2-hydroxyethyl)-6-methoxy-7,9-dihydro-8H-purin-8-one], the IC50 came out at 23 nM. Consider `COc1ccc(F)c(F)c1COc1cc(-n2c(=O)[nH]c3c(OC)nc(CF)nc32)c(Cl)cc1OCC(=O)NCCO` [Example 341], for which the IC50 stood at 32 nM. The value for `COc1ccc(F)c(F)c1COc1cc(-n2c(=O)[nH]c3c(OC)nc(C(F)F)nc32)c(Cl)cc1OCC(=O)N(C)C` [Example 345] was 17 nM; that for `CNC(=O)COc1cc(Cl)c(-n2c(=O)[nH]c3c(OC)nc(C(C)=O)nc32)cc1OCc1c(OC)ccc(F)c1F` [Example 346] was 38 nM.

Take `COc1cc(Cl)c(-n2c(=O)[nH]c3c(C)nc(N)nc32)cc1OCc1c(OC)ccc(F)c1F` [Example 381, 2-Amino-9-[2-chloro-5-(2,3-difluoro-6-methoxybenzyloxy)-4-methoxyphenyl]-6-methyl-7,9-dihydro-8H-purin-8-one]: the IC50 was 36 nM. Take `CCNC(=O)COc1cc(Cl)c(-n2c(=O)[nH]c3c(C(C)=O)nc(C)nc32)cc1OCc1c(F)cccc1OC` [Example 452]: the IC50 turned out to be 19 nM.

As a reminder, the IC50 is the concentration needed to halve the response being measured.

For the origin of these results see patent publication US8217069B2, “Nitrogenated fused ring derivative, pharmaceutical composition comprising the same, and use of the same for medical purposes” (Kissei Pharmaceutical Co., Ltd., priority 2007, dated 2012).
